From patent US7498343B2, “Mycobacterial inhibitors” (priority 2002, dated 2009)

Legend:
[1] = system: Mycobacterium tuberculosis (strain H37RV); assay: In-vitro method for testing compounds against M. tuberculosis (resazurin growth inhibition, MIC); format: cell-based; details: MIC data representing IC90's, 7 days incubation, resazurin fluorescence
[2] = system: M. Smegmatis ATCC607; assay: In-vitro method for testing compounds for anti-bacterial activity against strain M. smegmatis ATCC607 (Alamar Blue growth inhibition); format: cell-based; details: M. smegmatis ATCC607; pIC50 = -logIC50, IC50 in M, 50% inhibitory concentration for bacterial growth; 48 hours incubation
Method: C.2. In-vitro Method for Testing Compounds for Anti-bacterial Activity Against Strain M. Smegmatis ATCC607. […] Subsequently, stock solutions (7.8×final test concentration) of compounds were added in 45 μl volumes to a series of duplicate wells in column 2 so as to allow evaluation of their effects on bacterial growth. Serial five-fold dilutions (45 μl in 180 μl) were made directly in the microtiter plates from column 2 to 11 using a customised robot system (Zymark Corp., Hopkinton, Mass.). Pipette tips were changed after every 3 dilutions to minimize pipetting errors with high hydrophobic compounds. Untreated control samples with (column 1) and without (column 12) inoculum were included in each microtiter plate. Approximately 250 CFU per well of bacteria inoculum, in a volume of 100 μl in 2.8×Mueller-Hinton broth medium, was added to the rows […]. The same volume of broth medium without inoculum was added to column 12 in row A to H. The cultures were incubated at 37° C. for 48 hours in a humidified 5% CO2 atmosphere (incubator with open air valve and continuous ventilation). At the end of incubation, two days after inoculation, the bacterial growth was quantitated fluorometrically. Therefore Alamar Blue (10×) was added to all wells in a volume of 20 μl and plates were incubated for another 2 hours at […] The fluorescence was read in a computer-controlled fluorometer (Cytofluor, Biosearch) at an excitation wavelength of 530 nm and an emission wavelength of 590 nm (gain 30). The % growth inhibition achieved by the compounds was calculated according to standard methods.

Structure (SMILES)	MIC [1]	pIC50 [2]
COc1nc2ccc(Br)cc2cc1C(c1ccccc1)C(O)(CCN1CCN(C)CC1)c1cc(Br)cc2ccccc12 (single isomer, unassigned) [Compound 151]	13.76 microgram/ml	5.0
COc1nc2ccc(C)cc2cc1C(c1ccccc1)C(O)(CCN(C)C)c1cccc2ccccc12 (racemic) [Compound 83]	7.78 microgram/ml	5.8
CCN(CC)CCCC(O)(c1ccc2ccccc2c1)C(c1ccccc1)c1cc2cc(Br)ccc2nc1OC (single isomer, unassigned) [Compound 192]	5.98 microgram/ml	6.5
COc1nc2ccc(Br)cc2cc1C(c1ccccc1)C(O)(CCCCN(C)C)c1ccccc1 (single isomer, unassigned) [Compound 65]	1.69 microgram/ml	5.7
COc1nc2ccc(F)cc2cc1C(c1ccccc1)C(O)(CCN(C)C)c1ccccc1 (single isomer, unassigned) [Compound 29]	44.46 microgram/ml	5.9
COc1nc2ccc(Br)cc2cc1C(c1ccccc1)C(O)(CCCN(C)C)c1ccccc1 (single isomer, unassigned) [Compound 64]	6.54 microgram/ml	5.8
COc1nc2ccc(Br)cc2cc1C(c1ccccc1)C(O)(CCN(C)C)c1cc(F)cc(F)c1 (centres unmarked) [Compound 116]	8.58 microgram/ml	6.6
COc1nc2ccc(-c3cc4ccccc4s3)cc2cc1C(c1ccccc1)C(O)(CCN(C)C)c1cccc(F)c1 (single isomer, unassigned) [Compound 203]	1.15 microgram/ml	8.0
COc1nc2ccccc2cc1C(c1ccccc1)C(O)(CCN(C)C)c1ccccc1 (single isomer, unassigned) [Compound 40]	21.38 microgram/ml	4.7
COc1nc2ccc(Br)cc2cc1C(c1ccccc1)C(O)(CCN(C)C)c1cc(Br)cc2ccccc12 (single isomer, unassigned) [Compound 150]	63.44 microgram/ml	5.7
COc1nc2ccc(Br)cc2cc1C(c1ccccc1)C(O)(CCn1cncn1)c1ccccc1 (racemic) [Compound 53]	52.94 microgram/ml	5.1
COc1nc2ccccc2cc1C(c1ccccc1)C(C)(O)CCN(C)C (single isomer, unassigned) [Compound 42]	44.34 microgram/ml	6.3
COc1nc2ccc(Br)cc2cc1C(c1ccccc1)C(O)(CCN(C)C)c1ccccc1F (racemic) [Compound 69]	0.13 microgram/ml	8.5
COc1nc2ccc(-c3ccccc3)cc2cc1C(c1ccccc1)C(O)(CCN(C)C)c1cccc2ccccc12 (racemic) [Compound 85]	8.76 microgram/ml	5.9
COc1nc2ccc(-c3ccccc3)cc2cc1C(c1ccccc1)C(O)(CCN(C)C)c1ccccc1 (single isomer, unassigned) [Compound 27]	7.97 microgram/ml	5.9
COc1nc2ccc(Br)cc2cc1C(c1ccccc1)C(O)(CC[N+](C)(C)C)c1cccc2ccccc12.[I-] (racemic) [Compound 103]	5.54 microgram/ml	5.9
COc1nc2ccc(Br)cc2cc1C(c1ccccc1)C(O)(CCN(C)C)c1cccc(C(F)(F)F)c1 (single isomer, unassigned) [Compound 183]	0.36 microgram/ml	8.3
COc1nc2ccc(Br)cc2cc1C(c1ccccc1)C(O)(CCCN1CCOCC1)c1cccc2ccccc12 (single isomer, unassigned) [Compound 211]	61.16 microgram/ml	4.1
COc1nc2ccc(Br)cc2cc1C(c1ccccc1)C(O)(CCn1ccnc1)c1cccc2ccccc12 (single isomer, unassigned) [Compound 173]	57.85 microgram/ml	4.7
